Patent US8445510B2, “Fused bicyclic kinase inhibitors” (OSI Pharmaceuticals, LLC, priority 2011, dated 2013)
pIC50: −log10 of the molar value.

Columns and labels:
RON = target: T1, RON (Homo sapiens, UniProt Q04912); assay: sfRON cell mechanistic assay (HeLa), phosphorylated RON ELISA; format: cell-based; details: HeLa cells transfected with sfRON; inhibition of phosphorylated RON; four hours incubation; at least duplicate experiments; read-out: sfRON mech IC50
T1 sequence (Q04912 913-1400): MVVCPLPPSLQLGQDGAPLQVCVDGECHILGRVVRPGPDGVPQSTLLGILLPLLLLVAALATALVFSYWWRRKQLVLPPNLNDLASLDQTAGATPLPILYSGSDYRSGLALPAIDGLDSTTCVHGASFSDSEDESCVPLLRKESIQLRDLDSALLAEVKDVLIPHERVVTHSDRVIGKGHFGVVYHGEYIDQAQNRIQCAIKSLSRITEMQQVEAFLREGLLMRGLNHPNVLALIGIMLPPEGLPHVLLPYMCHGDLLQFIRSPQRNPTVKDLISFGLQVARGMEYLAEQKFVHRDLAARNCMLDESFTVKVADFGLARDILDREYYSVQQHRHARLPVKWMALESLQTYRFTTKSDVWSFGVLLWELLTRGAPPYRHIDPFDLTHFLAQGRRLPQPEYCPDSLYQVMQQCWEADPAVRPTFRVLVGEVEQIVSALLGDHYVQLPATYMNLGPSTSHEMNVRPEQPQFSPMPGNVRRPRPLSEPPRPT
How it was run: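 HeLa cells transiently transfected with sfRON plasmid, then exposed 4 h at 37 °C to a 6-point compound series (typically 10 μM to 3 nM, 0.5% DMSO). Phospho-RON (pY1238/1239) in lysates measured by sandwich ELISA with luminescence. IC50 from 4-parameter fit of percent-of-DMSO-control data, at least duplicate runs.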

Aurora B = target: T2, Aurora B (Homo sapiens, UniProt Q96GD4); assay: Aurora B cell mechanistic assay (HT-29), phospho-Histone H3 (Ser10) ELISA; format: cell-based; details: HT-29 cell line; inhibition of phospho-Histone H3 (Ser10); at least duplicate experiments (italicized if single experiment); read-out: Aurora B mech IC50
T2 construct: HT-29 cells grown in complete growth media
T2 sequence (Q96GD4 whole entry): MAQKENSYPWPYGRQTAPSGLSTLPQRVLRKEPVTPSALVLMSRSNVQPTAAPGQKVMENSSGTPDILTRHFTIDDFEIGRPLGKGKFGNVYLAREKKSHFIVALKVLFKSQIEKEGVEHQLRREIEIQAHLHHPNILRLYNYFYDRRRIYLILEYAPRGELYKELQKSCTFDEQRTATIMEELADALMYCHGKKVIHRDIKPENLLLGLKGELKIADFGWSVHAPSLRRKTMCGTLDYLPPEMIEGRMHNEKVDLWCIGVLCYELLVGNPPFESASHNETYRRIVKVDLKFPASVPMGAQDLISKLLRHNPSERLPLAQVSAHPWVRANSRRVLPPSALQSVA
How it was run: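 HT-29 cells treated 1 h at 37 °C with serially diluted compound, then 100 nM Calyculin A added for 30 min. Lysates assayed by phospho-Histone H3 (Ser10) ELISA at 450 nm; normalized to DMSO (100%) and a reference Aurora B inhibitor (full inhibition); IC50 by four-parameter fit.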

Row | Compound | pIC50 (RON) | pIC50 (Aurora B)
1 | Cc1nn(C[C@@H](O)CO)c(C)c1-c1cnc2[nH]cc([C@H](C)c3c(OC(F)F)ccc(F)c3Cl)c2c1 [Example 69, (2R)-3-[4-(3-{(1S)-1-[2-Chloro-6-(difluoromethoxy)-3-fluorophenyl]ethyl}-1H-pyrrolo[2,3-b]pyridin-5-yl)-3,5-dimethyl-1H-pyrazol-1-yl]propane-1,2-diol] | ≥ 6.70 | < 6.00
2 | COc1ccc(F)c(Cl)c1[C@@H](C)c1c[nH]c2ncc(-c3cnn([C@H]4CC[C@H](N(C)C)CC4)c3C)cc12 [Example 53, trans-4-(4-{3-[(1S)-1-(2-Chloro-3-fluoro-6-methoxyphenyl)ethyl]-1H-pyrrolo[2,3-b]pyridin-5-yl}-5-methyl-1H-pyrazol-1-yl)-N,N-dimethylcyclohexanamine] | 6.00 to 6.70 | 6.70 to 7.30
3 | C[C@H](c1c(OC(F)F)ccc(F)c1Cl)c1c[nH]c2ncc(-c3cnn([C@H]4CC[C@H](O)CC4)c3Cl)cc12 [Example 82, trans-4-[5-Chloro-4-(3-{(1S)-1-[2-chloro-6-(difluoromethoxy)-3-fluorophenyl]ethyl}-1H-pyrrolo[2,3-b]pyridin-5-yl)-1H-pyrazol-1-yl]cyclohexanol] | 6.00 to 6.70 | < 6.00
4 | Cc1c(-c2cnc3[nH]cc([C@H](C)c4c(OC(F)F)ccc(F)c4Cl)c3c2)cnn1[C@H]1CC[C@H](C(N)=O)CC1 [Example 76, trans-4-[4-(3-{(1S)-1-[2-Chloro-6-(difluoromethoxy)-3-fluorophenyl]ethyl}-1H-pyrrolo[2,3-b]pyridin-5-yl)-5-methyl-1H-pyrazol-1-yl]cyclohexanecarboxamide] | ≥ 6.70 | 6.00 to 6.70
5 | Cc1c(-c2cnc3[nH]cc([C@H](C)c4c(OCC(F)(F)F)ccc(F)c4Cl)c3c2)cnn1[C@H]1CC[C@H](O)CC1 [Example 105, trans-4-[4-(3-{(1S)-1-[2-Chloro-3-fluoro-6-(2,2,2-trifluoroethoxy)-phenyl]ethyl}-1H-pyrrolo[2,3-b]pyridin-5-yl)-5-methyl-1H-pyrazol-1-yl]cyclohexanol] | ≥ 6.70 | 6.70 to 7.30
6 | COc1ccc(F)c(Cl)c1[C@@H](C)c1c[nH]c2ncc(-c3c(C)nn(C)c3CO)cc12 [Example 45, (4-{3-[(1S)-1-(2-Chloro-3-fluoro-6-methoxyphenyl)ethyl]-1H-pyrrolo[2,3-b]pyridin-5-yl}-1,3-dimethyl-1H-pyrazol-5-yl)methanol] | < 6.00 | < 6.00
7 | Cc1c(-c2cnc3[nH]cc([C@H](C)c4c(OC(F)F)ccc(F)c4Cl)c3c2)cnn1[C@H]1CC[C@H](O)CC1 [Example 74, trans-4-[4-(3-{(1S)-1-[2-Chloro-6-(difluoromethoxy)-3-fluorophenyl]ethyl}-1H-pyrrolo[2,3-b]pyridin-5-yl)-5-methyl-1H-pyrazol-1-yl]cyclohexanol] | ≥ 6.70 | 6.00 to 6.70
8 | CCc1c(-c2cnc3[nH]cc([C@H](C)c4c(OC(F)F)ccc(F)c4Cl)c3c2)cnn1[C@H]1CC[C@H](O)CC1 [Example 78, trans-4-[4-(3-{(1S)-1-[2-Chloro-6-(difluoromethoxy)-3-fluorophenyl]ethyl}-1H-pyrrolo[2,3-b]pyridin-5-yl)-5-ethyl-1H-pyrazol-1-yl]cyclohexanol] | 6.00 to 6.70 | < 6.00
9 | COc1ccc(F)c(Cl)c1[C@@H](C)c1c[nH]c2ncc(-c3cnn(C)c3N)cc12 [Example 38, 4-{3-[(1S)-1-(2-Chloro-3-fluoro-6-methoxyphenyl)ethyl]-1H-pyrrolo[2,3-b]pyridin-5-yl}-1-methyl-1H-pyrazol-5-amine] | 6.00 to 6.70 | 6.00 to 6.70
10 | CCc1nn([C@H]2CC[C@H](O)CC2)cc1-c1cnc2[nH]cc([C@H](C)c3c(OC(F)F)ccc(F)c3Cl)c2c1 [Example 77, trans-4-[4-(3-{(1S)-1-[2-Chloro-6-(difluoromethoxy)-3-fluorophenyl]ethyl}-1H-pyrrolo[2,3-b]pyridin-5-yl)-3-ethyl-1H-pyrazol-1-yl]cyclohexanol] | ≥ 6.70 | 6.00 to 6.70

The next lines start with the values.

Row | pIC50 (RON) | pIC50 (Aurora B) | Compound
11 | 6.00 to 6.70 | 6.00 to 6.70 | COc1ccc(F)c(Cl)c1[C@@H](C)c1c[nH]c2ncc(-c3cnn([C@H]4CC[C@H](C(N)=O)CC4)c3C)cc12 [Example 18, trans-4-(4-{3-[(1S)-1-(2-chloro-3-fluoro-6-methoxyphenyl)ethyl]-1H-pyrrolo[2,3-b]pyridin-5-yl}-5-methyl-1H-pyrazol-1-yl)cyclohexanecarboxamide]
12 | 6.00 to 6.70 | 6.70 to 7.30 | COc1ccc(F)c(Cl)c1[C@@H](C)c1c[nH]c2ncc(-c3cn(C)nc3C)cc12 [Example 2, 3-[(1S)-1-(2-Chloro-3-fluoro-6-methoxyphenyl)ethyl]-5-(1,3-dimethyl-1H-pyrazol-4-yl)-1H-pyrrolo[2,3-b]pyridine]
13 | < 6.00 | < 6.00 | COc1ccc(F)c(Cl)c1[C@@H](C)c1c[nH]c2ncc(-c3cnn(C)c3C(N)=O)cc12 [Example 43, 4-{3-[(1S)-1-(2-Chloro-3-fluoro-6-methoxyphenyl)ethyl]-1H-pyrrolo[2,3-b]pyridin-5-yl}-1-methyl-1H-pyrazole-5-carboxamide]
14 | 6.00 to 6.70 | < 6.00 | COc1ccc(F)c(Cl)c1[C@@H](C)c1c[nH]c2ncc(-c3c(C)nn([C@@H]4C[C@@H](O)[C@@H](O)C4)c3C)cc12 [Example 33, (1R,2S,4S)-4-(4-{3-[(1S)-1-(2-Chloro-3-fluoro-6-methoxyphenyl)ethyl]-1H-pyrrolo[2,3-b]pyridin-5-yl}-3,5-dimethyl-1H-pyrazol-1-yl)cyclopentane-1,2-diol]
15 | < 6.00 | < 6.00 | COc1ccc(F)c(Cl)c1[C@@H](C)c1c[nH]c2ncc(-c3c(C)nn(C)c3Cl)cc12 [Example 63, 5-(5-Chloro-1,3-dimethyl-1H-pyrazol-4-yl)-3-[(1S)-1-(2-chloro-3-fluoro-6-methoxyphenyl)ethyl]-1H-pyrrolo[2,3-b]pyridine]
16 | ≥ 6.70 | < 6.00 | CCOc1ccc(F)c(Cl)c1[C@@H](C)c1c[nH]c2ncc(-c3cnn([C@H]4CC[C@H](O)CC4)c3C)cc12 [Example 103, trans-4-(4-{3-[(1S)-1-(2-Chloro-6-ethoxy-3-fluorophenyl)ethyl]-1H-pyrrolo[2,3-b]pyridin-5-yl}-5-methyl-1H-pyrazol-1-yl)cyclohexanol]
17 | ≥ 6.70 | 6.70 to 7.30 | COc1ccc(F)c(Cl)c1[C@@H](C)c1c[nH]c2ncc(-c3cn([C@@H]4C[C@@H](O)[C@@H](O)C4)nc3C)cc12 [Example 32, (1R,2S,4S)-4-(4-{3-[(1S)-1-(2-Chloro-3-fluoro-6-methoxyphenyl)ethyl]-1H-pyrrolo[2,3-b]pyridin-5-yl}-3-methyl-1H-pyrazol-1-yl)cyclopentane-1,2-diol]
18 | < 6.00 | < 6.00 | CCc1c(-c2cnc3[nH]cc([C@H](C)c4c(OC)ccc(F)c4Cl)c3c2)cnn1[C@H]1CC[C@H](O)CC1 [Example 48, trans-4-(4-{3-[(1S)-1-(2-Chloro-3-fluoro-6-methoxyphenyl)ethyl]-1H-pyrrolo[2,3-b]pyridin-5-yl}-5-ethyl-1H-pyrazol-1-yl)cyclohexanol]
19 | < 6.00 | < 6.00 | COc1ccc(F)c(Cl)c1[C@@H](C)c1c[nH]c2ncc(-c3c(CO)nn(C)c3C)cc12 [Example 51, (4-{3-[(1S)-1-(2-Chloro-3-fluoro-6-methoxyphenyl)ethyl]-1H-pyrrolo[2,3-b]pyridin-5-yl}-1,5-dimethyl-1H-pyrazol-3-yl)methanol]
20 | 6.00 to 6.70 | 6.00 to 6.70 | CCc1c(-c2cnc3[nH]cc([C@H](C)c4c(OC(F)F)ccc(F)c4Cl)c3c2)cnn1CC(C)(C)O [Example 72, 1-[4-(3-{(1S)-1-[2-Chloro-6-(difluoromethoxy)-3-fluorophenyl]ethyl}-1H-pyrrolo[2,3-b]pyridin-5-yl)-5-ethyl-1H-pyrazol-1-yl]-2-methylpropan-2-ol]
21 | 6.00 to 6.70 | < 6.00 | COc1ccc(F)c(Cl)c1[C@@H](C)c1c[nH]c2ncc(-c3c(C)nn([C@H]4CC[C@H](O)CC4)c3C)cc12 [Example 6, trans-4-(4-{3-[(1S)-1-(2-Chloro-3-fluoro-6-methoxyphenyl)ethyl]-1H-pyrrolo[2,3-b]pyridin-5-yl}-3,5-dimethyl-1H-pyrazol-1-yl)cyclohexanol]
22 | 6.00 to 6.70 | < 6.00 | CCc1nn(CC(C)(C)O)cc1-c1cnc2[nH]cc([C@H](C)c3c(OC(F)F)ccc(F)c3Cl)c2c1 [Example 73, 1-[4-(3-{(1S)-1-[2-Chloro-6-(difluoromethoxy)-3-fluorophenyl]ethyl}-1H-pyrrolo[2,3-b]pyridin-5-yl)-3-ethyl-1H-pyrazol-1-yl]-2-methylpropan-2-ol]
23 | < 6.00 | < 6.00 | COc1ccc(F)c(Cl)c1[C@@H](C)c1c[nH]c2ncc(-c3cncn3C)cc12 [Example 64, 3-[(1S)-1-(2-Chloro-3-fluoro-6-methoxyphenyl)ethyl]-5-(1-methyl-1H-imidazol-5-yl)-1H-pyrrolo[2,3-b]pyridine]
